Laboratory results as given in patent US20250346593A1, “IMIDAZO(1,2-1)PYRIDINE DERIVATIVES AS RIPK2 INHIBITORS” (Interline Therapeutics, Inc., priority 2022, published 2025).
Read-outs that look alike come from different tables or passages of the source.

Tests used:
[1] = target: GST-RIPK2 fusion protein (human RIPK2 amino acids 1-310) (Homo sapiens (Human), UniProt O43353); assay: RIPK2 binding competition assay (TR-FRET, Tracer 199)
[2] = system: NF-κB pathway (SEAP) in THP1-Dual cells; assay: THP-1 Dual cell SEAP assay (L18-MDP stimulated); type: cell-based; settings: read-out: NFkB THP1 IC50
[3] = read-out: RIPK2 IC50, RIPK2 binding competition assay

GST-RIPK2 fusion protein (human RIPK2 amino acids 1-310), sequence (O43353 1-310): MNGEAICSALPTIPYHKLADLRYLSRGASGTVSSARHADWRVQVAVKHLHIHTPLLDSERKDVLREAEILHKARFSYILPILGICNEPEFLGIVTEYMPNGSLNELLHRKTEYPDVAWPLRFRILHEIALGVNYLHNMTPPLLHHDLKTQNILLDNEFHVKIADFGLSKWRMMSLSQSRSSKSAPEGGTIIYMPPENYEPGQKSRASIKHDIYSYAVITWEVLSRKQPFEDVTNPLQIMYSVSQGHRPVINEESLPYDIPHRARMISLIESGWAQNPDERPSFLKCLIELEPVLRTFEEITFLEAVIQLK

Structure (SMILES)	IC50 [1]	IC50 ([2]; Homo sapiens, THP1-Dual)	other results
COc1cc2ncc(-c3cc(F)nc(NCCC(C)O)c3)n2cc1S(=O)(=O)C(C)(C)C (racemic) [Example 190, rac-4-((4-(6-(tert-butylsulfonyl)-7-methoxyimidazo[1,2-a]pyridin-3-yl)-6-fluoropyridin-2-yl)amino)butan-2-ol]	< 1 nM		
COc1cc2ncc(-c3cc(F)nc(N[C@@H]4CC[C@H](O)C4)c3)n2cc1S(=O)(=O)C(C)(C)C (racemic) [Example 192, rac-(1R,3S)-3-((4-(6-(tert-butylsulfonyl)-7-methoxyimidazo[1,2-a]pyridin-3-yl)-6-fluoropyridin-2-yl)amino)cyclopentan-1-ol]	< 1 nM	< 50 nM	
COc1cc2ncc(-c3cc(F)nc(N[C@@H]4CC[C@@H](O)C4)c3)n2cc1S(=O)(=O)C(C)(C)C (racemic) [Example 197, rac-(1R,3R)-3-((4-(6-(tert-butylsulfonyl)-7-methoxyimidazo[1,2-a]pyridin-3-yl)-6-fluoropyridin-2-yl)amino)cyclopentan-1-ol]	1 to 2.5 nM	< 50 nM	
COc1cc2ncc(-c3cc(F)nc(N[C@@H]4CCC[C@@H](O)C4)c3)n2cc1S(=O)(=O)C(C)(C)C (racemic) [Example 205, rac-(1R,3R)-3-((4-(6-(tert-butylsulfonyl)-7-methoxyimidazo[1,2-a]pyridin-3-yl)-6-fluoropyridin-2-yl)amino)cyclohexan-1-ol]	1 to 2.5 nM	50 to 250 nM	
COc1cc2ncc(-c3cc(F)nc(NC4CCCC[C@H]4O)c3)n2cc1S(=O)(=O)C(C)(C)C (mixture of isomers) [Example 225, (1R,2R & 1S,2S)-2-((4-(6-(tert-butylsulfonyl)-7-methoxyimidazo[1,2-a]pyridin-3-yl)-6-fluoropyridin-2-yl)amino)cyclohexan-1-ol]	2.5 to 20 nM	250 to 1000 nM	
CCOc1cc2ncc(-c3cc(F)nc(NCCC(O)CC)c3)n2cc1S(=O)(=O)C(C)C (racemic) [Example 246, Rac-1-({4-[7-ethoxy-6-(propane-2-sulfonyl)imidazo[1,2-a]pyridin-3-yl]-6-fluoropyridin-2-yl}amino)pentan-3-ol]	< 1 nM	< 50 nM	
COc1cc2ncc(-c3cc(F)nc(NCCC(C)O)c3)n2cc1S(=O)(=O)C(C)(C)C (single isomer, unassigned) [Example 169, 4-((4-(6-(tert-butylsulfonyl)-7-methoxyimidazo[1,2-a]pyridin-3-yl)-6-fluoropyridin-2-yl)amino)butan-2-ol]	< 1 nM	< 50 nM	
COc1cc2ncc(-c3cc(F)nc(NCCC(C)O)c3)n2cc1S(=O)(=O)C(C)(C)C (single isomer, unassigned) [Example 170, 4-((4-(6-(tert-butylsulfonyl)-7-methoxyimidazo[1,2-a]pyridin-3-yl)-6-fluoropyridin-2-yl)amino)butan-2-ol]			IC50 [2]: < 50 nM; IC50 [1, 3]: < 1 nM
COc1cc2ncc(-c3cc(F)nc(NC[C@@H]4CCNC(=O)C4)c3)n2cc1S(=O)(=O)C(C)(C)C (single isomer, unassigned) [Example 238, (4R or S)-4-[({6-fluoro-4-[7-methoxy-6-(2-methylpropane-2-sulfonyl)imidazo[1,2-a]pyridin-3-yl]pyridin-2-yl}amino)methyl]pi peridin-2-one]	1 to 2.5 nM	50 to 250 nM	
COc1cc2ncc(-c3ccnc(F)c3)n2cc1S(=O)(=O)C(C)(C)C [Example 5, 6-(tert-butylsulfonyl)-3-(2-fluoropyridin-4-yl)-7-methoxyimidazo[1,2-a]pyridine]	2.5 to 20 nM		
COc1cc2ncc(-c3ccnc(N)c3)n2cc1S(=O)(=O)C(C)(C)C [Example 11, 4-[7-methoxy-6-(2-methylpropane-2-sulfonyl)imidazo[1,2-a]pyridin-3-yl]pyridin-2-amine]		250 to 1000 nM	
COc1cc2ncc(-c3cc(C)nc(F)c3)n2cc1S(=O)(=O)C(C)(C)C [Example 12, 2-fluoro-4-[7-methoxy-6-(2-methylpropane-2-sulfonyl)imidazo[1,2-a]pyridin-3-yl]-6-methylpyridine]	2.5 to 20 nM		
COc1ccc(-c2cnc3cc(OC)c(S(=O)(=O)C4CC4)cn23)cc1N [Example 33, 5-(6-(cyclopropylsulfonyl)-7-methoxyimidazo[1,2-a]pyridin-3-yl)-2-methoxyaniline]			IC50 [1, 3]: > 20 nM
COc1ccc(-c2cnc3cc(OC)c(S(=O)(=O)C(C)(C)C)cn23)cc1F [Example 63, 6-(tert-butylsulfonyl)-3-(3-fluoro-4-methoxyphenyl)-7-methoxyimidazo[1,2-a]pyridine]	2.5 to 20 nM		
COc1cc2ncc(-c3ccc(N)c(C#N)c3)n2cc1S(=O)(=O)C(C)(C)C [Example 70, 2-amino-5-(6-(tert-butylsulfonyl)-7-methoxyimidazo[1,2-a]pyridin-3-yl)benzonitrile]	2.5 to 20 nM		
COc1cc2ncc(-c3ccc(O)cc3)n2cc1S(=O)(=O)C(C)(C)C [Example 149, 4-(6-(tert-butylsulfonyl)-7-methoxyimidazo[1,2-a]pyridin-3-yl)phenol]		250 to 1000 nM	

Structure (SMILES)	IC50 [1]	IC50 ([2]; Homo sapiens, THP1-Dual)	other results
COc1cc2ncc(-c3cc(Cl)ncc3C)n2cc1S(=O)(=O)C(C)(C)C [Example 159, 6-(tert-Butylsulfonyl)-3-(2-chloro-5-methylpyridin-4-yl)-7-methoxyimidazo[1,2-a]pyridine]			IC50 [1, 3]: > 20 nM
CC(C)(C)S(=O)(=O)c1ccc2ncc(-c3cc(F)nc(NCCC4(O)CC4)c3)n2c1 [Example 172, 1-(2-((4-(6-(tert-butylsulfonyl)imidazo [1,2-a]pyridin-3-yl)-6-fluoropyridin-2-yl)amino)ethyl)cyclo-propan-1-ol]	1 to 2.5 nM		
CC(C)(C)S(=O)(=O)c1ccc2ncc(-c3cc(F)nc(NCCCO)c3)n2c1 [Example 173, 3-((4-(6-(tert-butylsulfonyl)imidazo [1,2-a]pyridin-3-yl)-6-fluoropyridin-2-yl)amino)propan-1-ol]	2.5 to 20 nM		
COc1cc2ncc(-c3cc(F)nc(NC4CC4)c3)n2cc1S(=O)(=O)C(C)(C)C [Example 177, 4-(6-(tert-butylsulfonyl)-7-methoxyimidazo[1,2-a]pyridin-3-yl)-N-cyclopropyl-6-fluoropyridin-2-amine]			IC50 [1, 3]: < 1 nM
COc1cc2ncc(-c3cc(F)nc(NCCC4(O)CCC4)c3)n2cc1S(=O)(=O)C(C)(C)C [Example 187, 1-(2-((4-(6-(tert-butylsulfonyl)-7-methoxyimidazo[1,2-a]pyridin-3-yl)-6-fluoropyridin-2-yl)amino)ethyl)cyclo-butan-1-ol]			IC50 [1, 3]: < 1 nM
COc1cc2ncc(-c3cc(F)nc(NCCC(C)(C)O)c3)n2cc1S(=O)(=O)C(C)(C)C [Example 189, 4-((4-(6-(tert-butylsulfonyl)-7-methoxyimidazo[1,2-a]pyridin-3-yl)-6-fluoropyridin-2-yl)amino)-2-methylbutan-2-ol]			IC50 [1, 3]: < 1 nM
COc1cc2ncc(-c3cc(F)nc(NC4CC(O)C4)c3)n2cc1S(=O)(=O)C(C)(C)C (stereo not shown) [Example 191, (1s,3s)-3-((4-(6-(tert-butylsulfonyl)-7-methoxyimidazo[1,2-a]pyridin-3-yl)-6-fluoropyridin-2-yl)amino)cyclobutan-1-ol]		< 50 nM	
COc1cc2ncc(-c3cc(F)nc(N[C@H]4C[C@@H](O)C4)c3)n2cc1S(=O)(=O)C(C)(C)C [Example 191, (1s,3s)-3-((4-(6-(tert-butylsulfonyl)-7-methoxyimidazo[1,2-a]pyridin-3-yl)-6-fluoropyridin-2-yl)amino)cyclobutan-1-ol]	< 1 nM		
COc1cc2ncc(-c3cc(F)nc(NC4CCC(O)CC4)c3)n2cc1S(=O)(=O)C(C)(C)C (stereo not shown) [Example 204, (1r,4r)-4-((4-(6-(tert-butylsulfonyl)-7-methoxyimidazo[1,2-a]pyridin-3-yl)-6-fluoropyridin-2-yl)amino)cyclohexan-1-ol]		50 to 250 nM	
COc1cc2ncc(-c3cc(F)nc(N[C@H]4CC[C@H](O)CC4)c3)n2cc1S(=O)(=O)C(C)(C)C [Example 204, (1r,4r)-4-((4-(6-(tert-butylsulfonyl)-7-methoxyimidazo[1,2-a]pyridin-3-yl)-6-fluoropyridin-2-yl)amino)cyclohexan-1-ol]	1 to 2.5 nM		
COc1cc2ncc(-c3cc(F)nc(N4CC5(C4)CC(O)(C(F)(F)F)C5)c3)n2cc1S(=O)(=O)C(C)(C)C [Example 217, 2-{6-fluoro-4-[7-methoxy-6-(2-methylpropane-2-sulfonyl)imidazo[1,2-a]pyridin-3-yl]pyridin-2-yl}-6-(trifluoromethyl)-2-azaspiro[3.3]heptan-6-ol]	2.5 to 20 nM		
COc1cc2ncc(-c3cc(F)nc(N4CC5(CC(O)C5)C4)c3)n2cc1S(=O)(=O)C(C)(C)C [Example 218, 2-{6-fluoro-4-[7-methoxy-6-(2-methylpropane-2-sulfonyl)imidazo[1,2-a]pyridin-3-yl]pyridin-2-yl}-2-azaspiro[3.3]heptan-6-o1]	2.5 to 20 nM		
COc1cc2ncc(-c3cc(F)nc(N[C@H]4C[C@H](OC)C4)c3)n2cc1S(=O)(=O)C(C)(C)C [Example 219, 6-fluoro-4-[7-methoxy-6-(2-methylpropane-2-sulfonyl)imidazo[1,2-a]pyridin-3-yl]-N-[(trans)-3-methoxycyclobutyl] pyridin-2-amine]	1 to 2.5 nM		
COc1cc2ncc(-c3cc(F)nc(N[C@H]4C[C@@H](OC)C4)c3)n2cc1S(=O)(=O)C(C)(C)C [Example 220, 6-fluoro-4-[7-methoxy-6-(2-methylpropane-2-sulfonyl)imidazo[1,2-a]pyridin-3-yl]-N-[cis-3-methoxycyclobutyl] pyridin-2-amine]	1 to 2.5 nM		
CC(C)(C)S(=O)(=O)c1ccn2ncc(-c3ccc(NCCCO)nc3F)c2c1 [Example 297, 3-((5-(5-(tert-butylsulfonyl)pyrazolo[1,5-a]pyridin-3-yl)-6-fluoropyridin-2-yl)amino)propan-1-ol]			IC50 [1, 3]: > 20 nM
COc1cc2ncc(-c3cc(F)nc(NCCCNC(C)=O)c3)n2cc1S(=O)(=O)C(C)(C)C [Example 318, N-[3-({6-fluoro-4-[7-methoxy-6-(2-methylpropane-2-sulfonyl)imidazo [1,2-a]pyridin-3-yl]pyridin-2-yl}amino)propyl] acetamide]	1 to 2.5 nM		
